Results as given in patent US9708267B2, “Activators of human pyruvate kinase” (The United States of America, as represented by the …, priority 2010, dated 2017).
Read-outs that look alike come from different tables or passages of the source.

Key:
Type in all cases: biochemical
hPK, M2 = hPK, M2 (Homo sapiens, UniProt P14618); assay: luminescent pyruvate kinase-luciferase coupled assay (qHTS); details: for AC50: 0.1 mM ADP, 0.5 mM PEP; for Emax: maximum response (activation), read-out: Max. Res.
Sequence of hPK, M2 (P14618 whole entry): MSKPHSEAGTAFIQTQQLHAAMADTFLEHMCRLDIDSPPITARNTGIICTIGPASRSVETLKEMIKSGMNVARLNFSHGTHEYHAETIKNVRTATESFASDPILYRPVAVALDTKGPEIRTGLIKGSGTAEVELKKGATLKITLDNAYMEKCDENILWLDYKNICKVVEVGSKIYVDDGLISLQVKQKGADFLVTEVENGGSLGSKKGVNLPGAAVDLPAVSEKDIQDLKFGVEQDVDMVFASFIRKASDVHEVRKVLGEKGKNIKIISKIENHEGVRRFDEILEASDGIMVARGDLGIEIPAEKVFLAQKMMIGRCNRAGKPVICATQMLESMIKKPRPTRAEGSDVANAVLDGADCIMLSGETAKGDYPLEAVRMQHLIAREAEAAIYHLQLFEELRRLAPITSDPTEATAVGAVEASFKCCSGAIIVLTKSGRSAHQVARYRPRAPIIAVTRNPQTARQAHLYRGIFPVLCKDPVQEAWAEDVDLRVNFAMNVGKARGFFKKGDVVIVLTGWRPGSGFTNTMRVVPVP
Description: AC50 values were determined utilizing the luminescent pyruvate kinase-luciferase coupled assay (Inglese, J. et al, Quantitative high-throughput screening: a titration-based approach that efficiently identifies biological activities in large chemical libraries. Proc. Natl. Acad. Sci. U.S.A. 2006, 103, 11473-11478).
Luminescent Pyruvate Kinase-Luciferase Coupled Assay.
(§1) Production of a luminescent signal based on the generation of ATP by pyruvate kinase was determined by using the ATP-dependent enzyme firefly luciferase. Three μL of substrate mix (at r.t.) in assay buffer (50 mM imidazole pH 7.2, 50 mM KCl, 7 mM MgCl2, 0.01% tween 20, 0.05% BSA) was dispensed into Kalypsys (San Diego, Calif., USA) white solid bottom 1,536 well microtiter plates using a bottle-valve solenoid-based dispenser (Kalypsys). The final concentrations of substrates in the assay were 0.1 mM ADP and 0.5 mM PEP. Twenty-three nL of compound in DMSO were delivered with a 1,536-pin array tool, and 1 μL of enzyme mix in assay buffer (final concentration, 0.1 nM pyruvate kinase, 50 mM imidazole pH 7.2, 0.05% BSA, 4° C.) was added. Microtiter plates were incubated at r.t. for 1 hour and 2 uL of luciferase detection mix (Kinase-Glo from Promega, Madison, Wis., USA) at 4° C. protected from light, was added and luminescence was read with a ViewLux (Perkin Elmer, Waltham, Mass., USA) using a 2 second exposure/plate (with 2× binning). The final concentration of DMSO was 0.5% and found not to affect the assay signal.
Data was normalized for AC50 values to control columns containing uninhibited enzyme (n), and AC100 inhibition (i) according the following equation: Activation (%)=[(c−n)/(n−i)]*100 where c=compound, n=DMSO neutral, i=no enzyme control. A % activity of 100% is approximately a 2-fold increase over basal assay signal (% Activation by FBP was variable but averaged 100%). Monitoring of activation was accomplished using enzyme at 3× the final concentration.
All compounds were screened using a qHTS approach, where compounds are assayed using at least seven concentrations to generate concentration-response curves for every compounds. Briefly, qHTS uses an inter-plate dilution method where the first plate contains the highest concentration of a set of compounds in DMSO, while subsequent plates contain the same compounds in the same well locations, but at successive lower concentrations. Using the protocol outlined above, the rate was calculated as a plate throughput of 18 plates/hr or approximately 7 samples/sec on the Kalypsys robotic system which means that a 7 point CRC was obtained every second on the robotic system.

PKR = PKR (Homo sapiens, UniProt P30613); assay: luminescent pyruvate kinase-luciferase coupled assay, PKR isoform; details: same assay system as for PKM2
Sequence of PKR (P30613 whole entry, canonical isoform): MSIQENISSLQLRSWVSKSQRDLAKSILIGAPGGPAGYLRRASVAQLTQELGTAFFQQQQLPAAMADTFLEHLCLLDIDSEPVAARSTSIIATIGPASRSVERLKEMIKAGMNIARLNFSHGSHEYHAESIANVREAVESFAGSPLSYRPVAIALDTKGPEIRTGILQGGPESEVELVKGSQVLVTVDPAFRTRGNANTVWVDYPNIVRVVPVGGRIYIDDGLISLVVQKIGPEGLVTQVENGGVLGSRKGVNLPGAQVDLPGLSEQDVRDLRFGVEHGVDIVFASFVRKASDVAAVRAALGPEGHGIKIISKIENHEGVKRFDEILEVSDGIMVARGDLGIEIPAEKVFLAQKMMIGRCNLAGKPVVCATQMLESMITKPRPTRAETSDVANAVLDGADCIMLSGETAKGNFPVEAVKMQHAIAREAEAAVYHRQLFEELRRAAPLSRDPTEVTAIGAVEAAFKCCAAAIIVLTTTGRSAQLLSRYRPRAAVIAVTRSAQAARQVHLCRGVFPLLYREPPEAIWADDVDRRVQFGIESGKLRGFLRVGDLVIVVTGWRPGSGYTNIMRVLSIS
Description: as §1
(§2) The same assay system was utilized to examine the activity of compound 4 and all related analogs versus PKL, PKM1 and PKR pyruvate kinase isoforms. No activity for any of the compounds were found against PKL, PKM1, or PKR.

PKL = PKL (Homo sapiens, UniProt P30613); assay: luminescent pyruvate kinase-luciferase coupled assay, PKL isoform; details: same assay system as for PKM2
Sequence of PKL (P30613 1-543 isoform P30613-2): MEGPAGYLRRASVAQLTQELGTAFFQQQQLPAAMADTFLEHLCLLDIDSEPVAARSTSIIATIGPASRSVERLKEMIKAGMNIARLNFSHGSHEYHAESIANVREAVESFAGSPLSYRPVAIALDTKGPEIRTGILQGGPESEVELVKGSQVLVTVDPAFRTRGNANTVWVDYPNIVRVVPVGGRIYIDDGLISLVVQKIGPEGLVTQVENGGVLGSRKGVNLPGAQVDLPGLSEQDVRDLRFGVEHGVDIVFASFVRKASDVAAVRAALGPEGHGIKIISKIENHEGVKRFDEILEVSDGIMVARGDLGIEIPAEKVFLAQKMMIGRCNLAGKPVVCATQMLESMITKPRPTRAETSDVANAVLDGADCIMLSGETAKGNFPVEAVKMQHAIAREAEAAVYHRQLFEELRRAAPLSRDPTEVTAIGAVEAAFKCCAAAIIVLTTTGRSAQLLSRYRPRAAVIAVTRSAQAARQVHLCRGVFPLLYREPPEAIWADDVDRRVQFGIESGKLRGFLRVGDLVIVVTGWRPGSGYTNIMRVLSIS
Description: as §1, §2

PKM1 = PKM1 (Homo sapiens, UniProt P14618); assay: luminescent pyruvate kinase-luciferase coupled assay, PKM1 isoform; details: same assay system as for PKM2
Sequence of PKM1 (P14618 1-531 isoform P14618-2): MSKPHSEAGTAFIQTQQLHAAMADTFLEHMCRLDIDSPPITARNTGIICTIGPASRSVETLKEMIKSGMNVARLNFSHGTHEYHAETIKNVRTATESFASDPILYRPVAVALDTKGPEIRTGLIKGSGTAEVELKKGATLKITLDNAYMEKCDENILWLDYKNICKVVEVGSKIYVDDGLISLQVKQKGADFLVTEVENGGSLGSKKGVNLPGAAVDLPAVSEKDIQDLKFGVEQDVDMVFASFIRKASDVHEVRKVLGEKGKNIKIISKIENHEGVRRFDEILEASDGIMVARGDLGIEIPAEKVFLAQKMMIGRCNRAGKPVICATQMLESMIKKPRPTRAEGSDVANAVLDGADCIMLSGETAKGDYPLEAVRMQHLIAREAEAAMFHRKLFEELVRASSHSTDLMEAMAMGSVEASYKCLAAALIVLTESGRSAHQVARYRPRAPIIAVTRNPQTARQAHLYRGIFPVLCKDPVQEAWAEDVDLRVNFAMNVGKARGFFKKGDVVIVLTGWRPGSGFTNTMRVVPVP
Description: as §1, §2

Compound: Cc1ccc(NS(=O)(=O)c2ccc3c(c2)CCC(=O)N3)cc1C [Compound 4, N-(3,4-dimethylphenyl)-2-oxo-1,2,3,4-tetrahydroquinoline-6-sulfonamide]
- AC50 (hPK, M2; Table 1, mean of three replicate experiments, read-out: hPK, M2 AC50): 650 nM
- activation at 57 µM (hPK, M2; Table 1, % activation at 57 μM of compound, mean of three replicate experiments, read-out: hPK, M2 Max. Res.): 104%
- hPK, M2 Max. Res. (hPK, M2; Table 2, % activation at 57 μM of compound, mean of three replicate experiments): 104%
- hPK, M2 Max. Res. (hPK, M2; Table 3, % activation at 57 μM of compound, mean of three replicate experiments): 104%
- activity against PKR (PKR): No activity
- activity against PKL (PKL): No activity
- activity against PKM1 (PKM1): No activity

Compound: Cc1ccc(NS(=O)(=O)c2cc3c(cc2NC(C)CO)NC(=O)CC3)cc1C (stereo not drawn) [Compound 67, N-(3,4-dimethylphenyl)-7-(1-hydroxypropan-2-ylamino)-2-oxo-1,2,3,4-tetrahydroquinoline-6-sulfonamide]
- AC50 (hPK, M2; Table 4, read-out: AC50): 110 nM
- Emax (hPK, M2; Table 4): 110%

Compound: Cc1ccc(NS(=O)(=O)c2cc3c(cc2N[C@@H](C)CO)NC(=O)CC3)cc1C [Compound 68, (S)—N-(3,4-dimethylphenyl)-7-(1-hydroxypropan-2-ylamino)-2-oxo-1,2,3,4-tetrahydroquinoline-6-sulfonamide]
- AC50 (hPK, M2; Table 4, read-out: AC50): 90 nM
- Emax (hPK, M2; Table 4): 131%

Compound: Cc1ccc(NS(=O)(=O)c2cc3c(cc2N[C@H](C)CO)NC(=O)CC3)cc1C [Compound 69, (R)—N-(3,4-dimethylphenyl)-7-(1-hydroxypropan-2-ylamino)-2-oxo-1,2,3,4-tetrahydroquinoline-6-sulfonamide]
- AC50 (hPK, M2; Table 4, read-out: AC50): 370 nM
- Emax (hPK, M2; Table 4): 87.7%

Compound: Cc1ccc(NS(=O)(=O)c2cc3c(cc2NCCO)NC(=O)CC3)cc1C [Compound 70, N-(3,4-dimethylphenyl)-7-(2-hydroxyethylamino)-2-oxo-1,2,3,4-tetrahydroquinoline-6-su 1 fonamide]
- AC50 (hPK, M2; Table 4, read-out: AC50): 90 nM
- Emax (hPK, M2; Table 4): 111%

Compound: Cc1ccc(NS(=O)(=O)c2cc3c(cc2N[C@@H](C)CO)NC(=O)CC3)cc1Cl [Compound 71, (S)—N-(3-chloro-4-methylphenyl)-7-(l-hydroxypropan-2-ylamino)-2-oxo-1,2,3,4-tetrahydroquinoline-6-sulfonamide]
- AC50 (hPK, M2; Table 4, read-out: AC50): 80 nM
- Emax (hPK, M2; Table 4): 124%

Compound: Cc1cc(NS(=O)(=O)c2cc3c(cc2N[C@@H](C)CO)NC(=O)CC3)ccc1F [Compound 72, (S)—N-(4-fluoro-3-methylphenyl)-7-(1-hydroxypropan-2-ylamino)-2-oxo-1,2,3,4-tetrahydroquinoline-6-sulfonamide]
- AC50 (hPK, M2; Table 4, read-out: AC50): 270 nM
- Emax (hPK, M2; Table 4): 99%

Compound: C[C@@H](CO)Nc1cc2c(cc1S(=O)(=O)Nc1ccc(F)c(Cl)c1)CCC(=O)N2 [Compound 73, (S)—N-(3-chloro-4-fluorophenyl)-7-(1-hydroxypropan-2-ylamino)-2-oxo-1,2,3,4-tetrahydroquinoline-6-sulfonamide]
- AC50 (hPK, M2; Table 4, read-out: AC50): 140 nM
- Emax (hPK, M2; Table 4): 95%
